Experiment [1] addresses GST-Bcl-XL (Homo sapiens, UniProt Q07817). The experiment can be described thus: TR-FRET binding assay, GST-Bcl-XL with F-Bak peptide probe. The settings on record: TR-FRET Binding Affinity. In outline: (§1)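 Competitive TR-FRET: GST-fusion protein, fluorescent Bak peptide probe and Tb-labelled anti-GST antibody incubated with compound dilution series (starting 50 μM as 2× stock, 10% DMSO) for 3 h at RT. Excitation 340/35 nm; Ki derived via Wang's exact competitive-binding equation.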
In general terms: TR-FRET usually uses a lanthanide donor and a delayed reading to cut background.

Experiment [2] addresses GST-Bcl-2 (Homo sapiens, UniProt P10415). The experiment can be described thus: TR-FRET binding assay, GST-Bcl-2 with F-Bak peptide probe. The settings on record: for Ki: TR-FRET Binding Affinity. In outline: as §1
Setting [3] is: GST-Bcl-XL, F-Bak peptide probe.
The mark [4] stands for this setting: TR-FRET, Bcl-XL Ki divided by Bcl-2 Ki.

Usually Ki stands for the dissociation constant of the complex between target and ligand, obtained from inhibition or displacement. Higher therefore signals weaker binding.

Sequence of GST-Bcl-XL (Q07817 whole entry, the tested form may be a part): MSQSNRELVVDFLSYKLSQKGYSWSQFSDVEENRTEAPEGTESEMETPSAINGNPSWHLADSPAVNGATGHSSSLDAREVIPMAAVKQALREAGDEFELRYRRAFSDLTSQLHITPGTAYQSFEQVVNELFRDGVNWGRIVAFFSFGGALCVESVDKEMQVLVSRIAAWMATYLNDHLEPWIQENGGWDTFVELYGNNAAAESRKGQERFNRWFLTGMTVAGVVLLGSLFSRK
Sequence of GST-Bcl-2 (P10415 whole entry): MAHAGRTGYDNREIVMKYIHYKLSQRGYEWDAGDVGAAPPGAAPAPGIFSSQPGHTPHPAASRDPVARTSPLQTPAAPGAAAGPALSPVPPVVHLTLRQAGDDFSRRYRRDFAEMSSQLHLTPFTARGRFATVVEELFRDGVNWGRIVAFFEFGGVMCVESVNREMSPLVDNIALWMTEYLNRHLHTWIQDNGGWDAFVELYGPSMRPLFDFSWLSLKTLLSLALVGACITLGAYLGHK

Regarding `CC1(C)CCC(CN2CCN(c3ccc(C(=O)NS(=O)(=O)c4cnc(O[C@@H]5CCN(C(CF)CF)C5)c(Cl)c4)c(Oc4cccc5[nH]ncc45)c3)CC2)=C(c2ccc(Cl)cc2)C1` [Example 434, N-{[5-chloro-6-({(3R)-1-[2-fluoro-1-(fluoromethyl)ethyl]pyrrolidin-3-yl}oxy)pyridin-3-yl]sulfonyl}-4-(4-{[2-(4-chlorophenyl)-4,4-dimethylcyclohex-1-en-1-yl]methyl}piperazin-1-yl)-2-(1H-indazol-4-yloxy)benzamide], the Ki was 75.5 nM in experiment [1] (setting [3]) and 0.052 nM in experiment [2] (GST-Bcl-2, F-Bak peptide probe). For the same molecule, the “Binding selectivity ratio (Bcl-XL Ki/Bcl-2 Ki)” value (shortened to “Binding selectivity ratio”) in experiment [2] (ratio of TR-FRET Ki values, Bcl-XL over Bcl-2) is 1459.4.

On to `CC1(C)CCC(CN2CCN(c3ccc(C(=O)NS(=O)(=O)c4ccc(N[C@@H]5CCN(C(CF)CF)C5)c([N+](=O)[O-])c4)c(Oc4cccc5[nH]ncc45)c3)CC2)=C(c2ccc(Cl)cc2)C1` [Example 435, 4-(4-{[2-(4-chlorophenyl)-4,4-dimethylcyclohex-1-en-1-yl]methyl}piperazin-1-yl)-N-{[4-({(3R)-1-[2-fluoro-1-(fluoromethyl)ethyl]pyrrolidin-3-yl}amino)-3-nitrophenyl]sulfonyl}-2-(1H-indazol-4-yloxy)benzamide], for which the inhibition constant Ki amounted to 32.9 nM in experiment [1] (setting [3]) and 0.017 nM in experiment [2] (GST-Bcl-2, F-Bak peptide probe).

Take `CC1(C)CCC(CN2CCN(c3ccc(C(=O)NS(=O)(=O)c4ccc(NC5CCN(C6CC6)CC5)c([N+](=O)[O-])c4)c(Oc4cccc5[nH]ncc45)c3)CC2)=C(c2ccc(Cl)cc2)C1` [Example 436, 4-(4-{[2-(4-chlorophenyl)-4,4-dimethylcyclohex-1-en-1-yl]methyl}piperazin-1-yl)-N-({4-[(1-cyclopropylpiperidin-4-yl)amino]-3-nitrophenyl}sulfonyl)-2-(1H-indazol-4-yloxy)benzamide]: the Ki in experiment [1] was 6.5 nM; in experiment [2], 0.011 nM.

Consider `CN(C)CC(=O)N1CCO[C@H](CNc2ccc(S(=O)(=O)NC(=O)c3ccc(N4CCN(CC5=C(c6ccc(Cl)cc6)CC(C)(C)CC5)CC4)cc3Oc3cccc4[nH]cnc34)cc2[N+](=O)[O-])C1` [Example 437, 2-(1H-benzimidazol-4-yloxy)-4-(4-{[2-(4-chlorophenyl)-4,4-dimethylcyclohex-1-en-1-yl]methyl}piperazin-1-yl)-N-{[4-({[(2R)-4-(N,N-dimethylglycyl)morpholin-2-yl]methyl}amino)-3-nitrophenyl]sulfonyl}benzamide], for which the inhibitory constant (Ki) in experiment [1] is 0.514 nM; in experiment [2], under 0.01 nM.

For `CN(C)CC(=O)N1CCO[C@@H](CNc2ccc(S(=O)(=O)NC(=O)c3ccc(N4CCN(CC5=C(c6ccc(Cl)cc6)CC(C)(C)CC5)CC4)cc3Oc3cccc4[nH]cnc34)cc2[N+](=O)[O-])C1` [Example 438, 2-(1H-benzimidazol-4-yloxy)-4-(4-{[2-(4-chlorophenyl)-4,4-dimethylcyclohex-1-en-1-yl]methyl}piperazin-1-yl)-N-{[4-({[(2S)-4-(N,N-dimethylglycyl)morpholin-2-yl]methyl}amino)-3-nitrophenyl]sulfonyl}benzamide], the Ki was 0.345 nM in experiment [1] and under 0.01 nM in experiment [2].

Take `CC1(C)CCC(CN2CCN(c3ccc(C(=O)NS(=O)(=O)c4ccc(NCC5CCOC5)c([N+](=O)[O-])c4)c(Oc4cccc5[nH]cnc45)c3)CC2)=C(c2ccc(Cl)cc2)C1` (centres unmarked) [Example 439, 2-(1H-benzimidazol-4-yloxy)-4-(4-{[2-(4-chlorophenyl)-4,4-dimethylcyclohex-1-en-1-yl]methyl}piperazin-1-yl)-N-({3-nitro-4-[(tetrahydrofuran-3-ylmethyl)amino]phenyl}sulfonyl)benzamide]: the Ki in experiment [1] is 15 nM; in experiment [2] it was under 0.01 nM.

With `CO[C@H]1CC[C@H](CNc2ccc(S(=O)(=O)NC(=O)c3ccc(N4CCN(CC5=C(c6ccc(Cl)cc6)CC(C)(C)CC5)CC4)cc3Oc3cccc4[nH]cnc34)cc2[N+](=O)[O-])CC1` [Example 440, Trans-2-(1H-benzimidazol-4-yloxy)-4-(4-{[2-(4-chlorophenyl)-4,4-dimethylcyclohex-1-en-1-yl]methyl}piperazin-1-yl)-N-[(4-{[(4-methoxycyclohexyl)methyl]amino}-3-nitrophenyl)sulfonyl]benzamide], the Ki in experiment [1] is 45.5 nM; in experiment [2] it was under 0.01 nM.

On to `CC1(C)CCC(CN2CCN(c3ccc(C(=O)NS(=O)(=O)c4ccc(NCC5(F)CCOCC5)c([N+](=O)[O-])c4)c(Oc4cccc5[nH]cnc45)c3)CC2)=C(c2ccc(Cl)cc2)C1` [Example 441, 2-(1H-benzimidazol-4-yloxy)-4-(4-{[2-(4-chlorophenyl)-4,4-dimethylcyclohex-1-en-1-yl]methyl}piperazin-1-yl)-N-[(4-{[(4-fluorotetrahydro-2H-pyran-4-yl)methyl]amino}-3-nitrophenyl)sulfonyl]benzamide], for which the inhibition constant (Ki) in experiment [1] was 24.2 nM; in experiment [2] it was under 0.01 nM.

Regarding `CC1(C)CCC(CN2CCN(c3ccc(C(=O)NS(=O)(=O)c4cnc(OCC5(F)CCOCC5)c(F)c4)c(Oc4cccc5[nH]cnc45)c3)CC2)=C(c2ccc(Cl)cc2)C1` [Example 442, 2-(1H-benzimidazol-4-yloxy)-4-(4-{[2-(4-chlorophenyl)-4,4-dimethylcyclohex-1-en-1-yl]methyl}piperazin-1-yl)-N-({5-fluoro-6-[(4-fluorotetrahydro-2H-pyran-4-yl)methoxy]pyridin-3-yl}sulfonyl)benzamide], the results for the Ki in experiment [1] and in experiment [2] were 33.6 nM and under 0.01 nM, respectively.

Take `CC1(C)CCC(CN2CCN(c3ccc(C(=O)NS(=O)(=O)c4cnc(OCC5(F)CCOCC5)c(Cl)c4)c(Oc4cccc5[nH]cnc45)c3)CC2)=C(c2ccc(Cl)cc2)C1` [Example 443, 2-(1H-benzimidazol-4-yloxy)-N-({5-chloro-6-[(4-fluorotetrahydro-2H-pyran-4-yl)methoxy]pyridin-3-yl}sulfonyl)-4-(4-{[2-(4-chlorophenyl)-4,4-dimethylcyclohex-1-en-1-yl]methyl}piperazin-1-yl)benzamide]: the inhibition constant (Ki) in experiment [1] was 19.4 nM; in experiment [2] it was under 0.01 nM.

For the molecule `CC1(C)CCC(CN2CCN(c3ccc(C(=O)NS(=O)(=O)c4cnc(OC[C@@H]5CCN(C(CF)CF)C5)c(Cl)c4)c(Oc4cccc5[nH]ncc45)c3)CC2)=C(c2ccc(Cl)cc2)C1` [Example 444, N-{[5-chloro-6-({(3R)-1-[2-fluoro-1-(fluoromethyl)ethyl]pyrrolidin-3-yl}methoxy)pyridin-3-yl]sulfonyl}-4-(4-{[2-(4-chlorophenyl)-4,4-dimethylcyclohex-1-en-1-yl]methyl}piperazin-1-yl)-2-(1H-indazol-4-yloxy)benzamide], the inhibition constant Ki in experiment [1] turned out to be 81.5 nM; in experiment [2], 0.112 nM. The “Binding selectivity ratio” value in experiment [2] (setting [4]) was found to be 727.6.

As for `CC1(C)CCC(CN2CCN(c3ccc(C(=O)NS(=O)(=O)c4cnc(OC[C@@H]5CCN(CC(F)F)C5)c(Cl)c4)c(Oc4cccc5[nH]ncc45)c3)CC2)=C(c2ccc(Cl)cc2)C1` [Example 445, N-[(5-chloro-6-{[(3R)-1-(2,2-difluoroethyl)pyrrolidin-3-yl]methoxy}pyridin-3-yl)sulfonyl]-4-(4-{[2-(4-chlorophenyl)-4,4-dimethylcyclohex-1-en-1-yl]methyl}piperazin-1-yl)-2-(1H-indazol-4-yloxy)benzamide], the results for the Ki in experiment [1] and in experiment [2] were 13.6 nM and 0.028 nM, respectively. For the same molecule, the “Binding selectivity ratio” value in experiment [2] (setting [4]) is 484.2.

As to `CO[C@H]1CC[C@H](CNc2ccc(S(=O)(=O)NC(=O)c3ccc(N4CCN(CC5=C(c6ccc(Cl)cc6)CC(C)(C)CC5)CC4)cc3Oc3cccc4[nH]ncc34)cc2[N+](=O)[O-])CC1` [Example 446, Trans-4-(4-{[2-(4-chlorophenyl)-4,4-dimethylcyclohex-1-en-1-yl]methyl}piperazin-1-yl)-2-(1H-indazol-4-yloxy)-N-[(4-{[(4-methoxycyclohexyl)methyl]amino}-3-nitrophenyl)sulfonyl]benzamide], the Ki in experiment [1] came out at 19.3 nM; in experiment [2], 0.038 nM. In addition, in experiment [2] (setting [4]), the “Binding selectivity ratio” value is 508.4.

With `CC1(C)CCC(CN2CCN(c3ccc(C(=O)NS(=O)(=O)c4ccc(OCC5COCCO5)c([N+](=O)[O-])c4)c(Oc4cccc5[nH]ncc45)c3)CC2)=C(c2ccc(Cl)cc2)C1` (centres unmarked) [Example 447, 4-(4-{[2-(4-chlorophenyl)-4,4-dimethylcyclohex-1-en-1-yl]methyl}piperazin-1-yl)-N-{[4-(1,4-dioxan-2-ylmethoxy)-3-nitrophenyl]sulfonyl}-2-(1H-indazol-4-yloxy)benzamide], the figures for the inhibitory constant (Ki) in experiment [1] and in experiment [2] were 65.8 nM and 0.028 nM, respectively.

Regarding `CC1(C)CCC(CN2CCN(c3ccc(C(=O)NS(=O)(=O)c4cnc(NC5CCN(C6CC6)CC5)c(Cl)c4)c(Oc4cccc5[nH]ncc45)c3)CC2)=C(c2ccc(Cl)cc2)C1` [Example 448, N-({5-chloro-6-[(1-cyclopropylpiperidin-4-yl)amino]pyridin-3-yl}sulfonyl)-4-(4-{[2-(4-chlorophenyl)-4,4-dimethylcyclohex-1-en-1-yl]methyl}piperazin-1-yl)-2-(1H-indazol-4-yloxy)benzamide], the Ki came to 14.6 nM in experiment [1] and 0.005 nM in experiment [2]. For the same molecule, in experiment [2] (setting [4]), the “Binding selectivity ratio” value is 3119.3.

Regarding `CC1(C)CCC(CN2CCN(c3ccc(C(=O)NS(=O)(=O)c4cnc(NC5CCN(C6CC6)CC5)c(Cl)c4)c(Oc4cccc5[nH]cnc45)c3)CC2)=C(c2ccc(Cl)cc2)C1` [Example 449, 2-(1H-benzimidazol-4-yloxy)-N-({5-chloro-6-[(1-cyclopropylpiperidin-4-yl)amino]pyridin-3-yl}sulfonyl)-4-(4-{[2-(4-chlorophenyl)-4,4-dimethylcyclohex-1-en-1-yl]methyl}piperazin-1-yl)benzamide], the inhibition constant Ki in experiment [1] came out at 17.8 nM; in experiment [2], 0.24 nM. The “Binding selectivity ratio” value in experiment [2] (setting [4]) came out at 74.4.

For the origin of these results see patent US9073855B2, “BCL-2 selective apoptosis-inducing agents for the treatment of cancer and immune diseases” (AbbVie Inc., priority 2008, dated 2015).
